The values below come from patent US5763212A, “Inhibiting degradation of a degron-bearing protein” (California Institute of Technology, priority 1995, dated 1998).

SMILES strings stand for the structures. Residues, ends and D or L forms follow the SMILES beside them.

For this assay, the system named is Arg-e^K-DHFRha (mouse dihydrofolate reductase with e^K extension and ha epitope, from Ub-Arg-e^K-DHFRha). The assay is described as follows: Degradation of 35S-labeled N-end rule substrate in ATP-supplemented reticulocyte extract (acid-soluble 35S, SDS-PAGE). The assay is classed as biochemical. Conditions: for inhibition of Arg-e^K-DHFRha degradation: FIG. 3A.

`C[C@H](NC(=O)[C@@H](N)CCCNC(=N)N)C(=O)O` [Arg-Ala] (H-Arg-Ala-OH): the “inhibition of Arg-e^K-DHFRha degradation” value (1 mM Arg-Ala dipeptide, reticulocyte extract) was “almost completely inhibited”. In addition, for the setting “1 mM Arg-Ala dipeptide, reticulocyte extract, SDS-PAGE”, the “effect on ubiquitination of Arg-e^K-DHFRha” value was “inhibited”.

Consider `CN(Cc1cnc2nc(N)nc(N)c2n1)c1ccc(C(=O)N[C@@H](CCC(=O)O)C(=O)O)cc1` [methotrexate], for which, under “20 μM methotrexate, ATP-supplemented reticulocyte extract, 37° C.”, the “inhibition of Arg-e^K-DHFRha degradation” value is reported as “nearly complete inhibition”. The “effect on multiubiquitination of Arg-e^K-DHFRha” value (20 μM methotrexate, ATP-supplemented reticulocyte extract, SDS-PAGE) was “enhanced”.
